pEC50: −log10 of the molar value.

Assay [1] deals with Human immunodeficiency virus 1. The assay can be described thus: Resistance index, ratio of EC50 for HIV1 with protease 46L/48V/82A/84V mutation to EC50 for wild type HIV1 NL4-3 in HEK293 cells after 48 hrs by replication-deffective luciferase reporter gene-based phenotypic assay. The class given is functional. In general terms: Reporter assays use an easily measured gene product as a stand-in for the process of interest.

Assay [2] has as its system Human immunodeficiency virus 1. The assay can be described thus: Resistance index, ratio of EC50 for HIV1 with protease 24I/33F/54V/82A/84V mutation to EC50 for wild type HIV1 NL4-3 in HEK293 cells after 48 hrs by replication-deffective luciferase reporter gene-based phenotypic assay. In kind it is functional.
For assay [3], the system named is Human immunodeficiency virus 1. The assay can be described thus: Resistance index, ratio of EC50 for HIV1 with protease 33F/50V mutation to EC50 for wild type HIV1 NL4-3 in HEK293 cells after 48 hrs by replication-deffective luciferase reporter gene-based phenotypic assay. The class given is functional.
In assay [4] the test system is Human immunodeficiency virus 1. The assay can be described thus: Resistance index, ratio of EC50 for HIV1 with protease 46L/48V/82A/90M mutation to EC50 for wild type HIV1 NL4-3 in HEK293 cells after 48 hrs by replication-deffective luciferase reporter gene-based phenotypic assay. The class given is functional.
Assay [5] relates to Human immunodeficiency virus 1. The assay can be described thus: Resistance index, ratio of EC50 for HIV1 with protease 84V/90M mutation to EC50 for wild type HIV1 NL4-3 in HEK293 cells after 48 hrs by replication-deffective luciferase reporter gene-based phenotypic assay. In kind it is functional.
The subject of assay [6] is Human immunodeficiency virus 1. The assay can be described thus: Resistance index, ratio of EC50 for HIV1 with protease 33F/54V/82T/84V/90M mutation to EC50 for wild type HIV1 NL4-3 in HEK293 cells after 48 hrs by replication-deffective luciferase reporter gene-based phenotypic assay. In kind it is functional.
Assay [7] has as its system Human immunodeficiency virus 1. The assay can be described thus: Antiviral activity against wild type HIV1 NL4-3 in HEK293 cells after 48 hrs by replication-deffective luciferase reporter gene-based phenotypic assay. As to conditions: Human immunodeficiency virus 1, NL4-3, HEK293, 48 h. In kind it is functional, organism-based.
Assay [8] relates to Human immunodeficiency virus 1. The assay can be described thus: Resistance index, ratio of EC50 for HIV1 with protease 33F/54V/73S/82A/90M mutation to EC50 for wild type HIV1 NL4-3 in HEK293 cells after 48 hrs by replication-deffective luciferase reporter gene-based phenotypic assay. In kind it is functional.
The test system of assay [9] is Human immunodeficiency virus 1. The assay can be described thus: Resistance index, ratio of EC50 for HIV1 with protease 30N/88D/90M mutation to EC50 for wild type HIV1 NL4-3 in HEK293 cells after 48 hrs by replication-deffective luciferase reporter gene-based phenotypic assay. The class given is functional.
The test system of assay [10] is Human immunodeficiency virus 1. The assay can be described thus: Resistance index, ratio of EC50 for HIV1 with protease 33F/54V/73S/82A/84V/90M mutation to EC50 for wild type HIV1 NL4-3 in HEK293 cells after 48 hrs by replication-deffective luciferase reporter gene-based phenotypic assay. In kind it is functional.
Assay [11] has as its system Human immunodeficiency virus 1. The assay can be described thus: Resistance index, ratio of EC50 for HIV1 with protease 33F/46L/54V/82A/84V/90M mutation to EC50 for wild type HIV1 NL4-3 in HEK293 cells after 48 hrs by replication-deffective luciferase reporter gene-based phenotypic assay. The class given is functional.
The subject of assay [12] is Human immunodeficiency virus 1. The assay can be described thus: Resistance index, ratio of EC50 for HIV1 with protease 33F/54V/82A/84V mutation to EC50 for wild type HIV1 NL4-3 in HEK293 cells after 48 hrs by replication-deffective luciferase reporter gene-based phenotypic assay. In kind it is functional.
The test system of assay [13] is Human immunodeficiency virus 1. The assay can be described thus: Resistance index, ratio of EC50 for HIV1 with protease 24I/33F/46I/54L/82A mutation to EC50 for wild type HIV1 NL4-3 in HEK293 cells after 48 hrs by replication-deffective luciferase reporter gene-based phenotypic assay. The class given is functional.
In assay [14] the test system is Human immunodeficiency virus 1. The assay can be described thus: Resistance index, ratio of EC50 for HIV1 with protease 54V/82A/84V/90M mutation to EC50 for wild type HIV1 NL4-3 in HEK293 cells after 48 hrs by replication-deffective luciferase reporter gene-based phenotypic assay. The class given is functional.
The test system of assay [15] is Human immunodeficiency virus 1. The assay can be described thus: Resistance index, ratio of EC50 for non-B type HIV1 with protease 46I/47V/84V mutation to EC50 for wild type HIV1 NL4-3 in HEK293 cells after 48 hrs by replication-deffective luciferase reporter gene-based phenotypic assay. In kind it is functional.
In assay [16] the test system is Human immunodeficiency virus 1. The assay can be described thus: Resistance index, ratio of EC50 for HIV1 with protease 46L/48V/82A/84V/90M mutation to EC50 for wild type HIV1 NL4-3 in HEK293 cells after 48 hrs by replication-deffective luciferase reporter gene-based phenotypic assay. The class given is functional.
Assay [17] relates to Human immunodeficiency virus 1. The assay can be described thus: Resistance index, ratio of EC50 for HIV1 with protease 32I/46I/47V/50L mutation to EC50 for wild type HIV1 NL4-3 in HEK293 cells after 48 hrs by replication-deffective luciferase reporter gene-based phenotypic assay. In kind it is functional.
Assay [18] relates to Human immunodeficiency virus 1. The assay can be described thus: Resistance index, ratio of EC50 for HIV1 with protease 46I/47A/84V mutation to EC50 for wild type HIV1 NL4-3 in HEK293 cells after 48 hrs by replication-deffective luciferase reporter gene-based phenotypic assay. The class given is functional.
Assay [19] has as its system Human immunodeficiency virus 1. The assay can be described thus: Resistance index, ratio of EC50 for HIV1 with protease 54V/84V mutation to EC50 for wild type HIV1 NL4-3 in HEK293 cells after 48 hrs by replication-deffective luciferase reporter gene-based phenotypic assay. In kind it is functional.
The test system of assay [20] is Human immunodeficiency virus 1. The assay can be described thus: Resistance index, ratio of EC50 for HIV1 with protease 37S/41K/70E mutation to EC50 for wild type HIV1 NL4-3 in HEK293 cells after 48 hrs by replication-deffective luciferase reporter gene-based phenotypic assay. The class given is functional.
Assay [21] relates to Human immunodeficiency virus 1. The assay can be described thus: Resistance index, ratio of EC50 for HIV1 with protease 30N/33F/46L/54L/84V/88D mutation to EC50 for wild type HIV1 NL4-3 in HEK293 cells after 48 hrs by replication-deffective luciferase reporter gene-based phenotypic assay. The class given is functional.
In assay [22] the test system is Human immunodeficiency virus 1. The assay can be described thus: Resistance index, ratio of EC50 for HIV1 with protease 46L/54V/82A/90M mutation to EC50 for wild type HIV1 NL4-3 in HEK293 cells after 48 hrs by replication-deffective luciferase reporter gene-based phenotypic assay. The class given is functional.
Assay [23] has as its system Human immunodeficiency virus 1. The assay can be described thus: Resistance index, ratio of EC50 for HIV1 with protease 46I/54V/82A/84V mutation to EC50 for wild type HIV1 NL4-3 in HEK293 cells after 48 hrs by replication-deffective luciferase reporter gene-based phenotypic assay. In kind it is functional.
The subject of assay [24] is Human immunodeficiency virus 1. The assay can be described thus: Resistance index, ratio of EC50 for HIV1 with protease 46I/82T/84V mutation to EC50 for wild type HIV1 NL4-3 in HEK293 cells after 48 hrs by replication-deffective luciferase reporter gene-based phenotypic assay. The class given is functional.
For assay [25], the system named is Human immunodeficiency virus 1. The assay can be described thus: Resistance index, ratio of EC50 for HIV1 with protease 33I/46I/84V/88D/90M mutation to EC50 for wild type HIV1 NL4-3 in HEK293 cells after 48 hrs by replication-deffective luciferase reporter gene-based phenotypic assay. In kind it is functional.
Assay [26] relates to Human immunodeficiency virus 1. The assay can be described thus: Resistance index, ratio of EC50 for HIV1 with protease 46I/82A/84V/90M mutation to EC50 for wild type HIV1 NL4-3 in HEK293 cells after 48 hrs by replication-deffective luciferase reporter gene-based phenotypic assay. The class given is functional.
Assay [27] concerns the target Protease (Human immunodeficiency virus 1) (UniProt Q9YQ12). The assay can be described thus: Inhibition of HIV1 3B protease-mediated gag polyprotein processing in H9 cells assessed as decrease in p24 level by Western blotting. The class given is cell-based.

Chain of Protease (Human immunodeficiency virus 1) (Q9YQ12 as listed by the source): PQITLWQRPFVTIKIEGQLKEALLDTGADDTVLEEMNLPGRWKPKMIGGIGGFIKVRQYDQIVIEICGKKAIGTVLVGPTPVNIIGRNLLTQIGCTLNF

As to `Cc1c(O)cccc1C(=O)N[C@@H](CSc1ccccc1)[C@H](O)CN1C[C@H]2CCCC[C@H]2C[C@H]1C(=O)NC(C)(C)C`, the “Ratio EC50” value is reported as 5.9 in assay [1]; 31.4 in assay [2]; 3.6 in assay [3]; 30.8 in [4]; 12.1 in assay [5]; 14.9 in assay [6]. For the same compound, the “Ratio EC50” value in [8] is listed as 20; in assay [9] it was 42.1; in assay [10], 172.1; in [11], 31.4; in [12], 5.8; in assay [13], 8.1. The “Ratio EC50” value in assay [14] stood at 33.1; in assay [15], 5.1; in assay [16], 43.6; in assay [17] it was 3.5; in [18] it was 10.4; in assay [19], 15. Moreover, the “Ratio EC50” value in assay [20] is 1.6; in [21], 400; in assay [22], 14.1; in [23], 8.8; in [24], 1.6; in assay [25], 27.9. Moreover, the “Ratio EC50” value in assay [26] is on record as 11.2. Besides, in [7], the pEC50 was 8.24.

Consider `COC(=O)N[C@H](C(=O)N[C@@H](Cc1ccccc1)[C@@H](O)CN(Cc1ccc(-c2ccccn2)cc1)NC(=O)[C@@H](NC(=O)OC)C(C)(C)C)C(C)(C)C` [ATAZANAVIR], for which the “Ratio EC50” value in [1] turned out to be 21.5; in [4], 35.4; in assay [6], 14.1; in [8] it was 11.9; in assay [12], 5.5; in assay [14] it was 50.5. The “Ratio EC50” value in assay [15] is 7.1; in assay [16], 91.6; in assay [17], 81.2; in assay [18], 9.5; in [19] it was 8.3; in assay [20], 1.4. The “Ratio EC50” value is on record as 66.1 in assay [21]; 11.8 in assay [22]; 5.8 in assay [23]; 38 in assay [25]; 3.8 in assay [26]. The pEC50 in [7] is 8.82.

Regarding `COC(=O)N[C@H](C(=O)NCCCC[C@@H](CO)N(CC(C)C)S(=O)(=O)c1ccc(N)cc1)C(c1ccccc1)c1ccccc1` [PPL-100], the “Ratio EC50” value worked out at 1.2 in [1]; 4.2 in assay [2]; 2.7 in assay [3]; 7.5 in [4]; 2.3 in [5]; 3.4 in assay [6]. Also, the “Ratio EC50” value in [8] came out at 5.3; in assay [9], 1.4; in [10], 37.2; in [11], 18.4; in assay [12], 3.4; in [13], 6.4. The “Ratio EC50” value in assay [14] worked out at 7; in [15], 4.3; in assay [16], 13.4; in [17], 1.1; in [18], 14.8; in [19], 0.8. For the same compound, the “Ratio EC50” value is recorded as 0.9 in assay [20]; 23.2 in assay [21]; 3.2 in assay [22]; 3.7 in assay [23]; 1.2 in [24]; 6.3 in assay [25]. Besides, the “Ratio EC50” value in assay [26] is reported as 10.1. For the same compound, the Activity entry in assay [27] is “Dose-dependent effect”. In [7], the pEC50 is 8.28.

A word on the pEC50: it is the EC50 on a negative log10 scale, so that one unit is a factor of ten. Low values mean a high EC50, high ones a low EC50.

The record behind these values is ChEMBL document CHEMBL1137017, “In vitro antiviral activity and cross-resistance profile of PL-100, a novel protease inhibitor of human immunodeficiency virus type 1” (Antimicrob Agents Chemother, 2007).
